Our source for the IC50, EC50 and Kd values is paper doi:10.1101/2022.04.17.488584v1, “A cobB like protein in Oryza sativa indica regulates the mitochondrial machinery under stress conditions” (biorxiv, 2022).

Assay [1] concerns the target T1, OscobB (Oryza sativa, UniProt A2XBC4).
T1 construct: gene OsI_09569; cobB-like portion 269-501 of OsI_09569, untagged, modified pET28a (insert 711 bp), E. coli BL21(DE3), ion exchange; 25-28 kDa monomer
T1 sequence (A2XBC4 269-501): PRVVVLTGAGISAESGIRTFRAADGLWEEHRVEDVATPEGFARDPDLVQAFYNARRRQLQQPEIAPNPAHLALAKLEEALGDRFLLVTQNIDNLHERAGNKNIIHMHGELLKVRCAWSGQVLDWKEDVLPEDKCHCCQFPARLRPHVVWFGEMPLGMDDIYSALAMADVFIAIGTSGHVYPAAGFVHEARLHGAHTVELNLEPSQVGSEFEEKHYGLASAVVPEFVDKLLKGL
Kind of assay: dot blot deacetylation assay. The class given is biochemical.

The target in assay [2] is T1, OscobB. Kind of assay: dot blot deacetylation assay. The class given is biochemical. This is another data set of the same source.
Assay [3] addresses T1, OscobB. The assay is described as follows: intrinsic tryptophan fluorescence quenching. The class given is binding.

Structures are written as SMILES. Read-outs that look alike come from different tables or passages of the source.

`Nc1ncnc2c1ncn2[C@@H]1O[C@H](COP(=O)(O)OP(=O)(O)OC[C@H]2OC(O)[C@H](O)[C@@H]2O)[C@@H](O)[C@H]1O` (stereo partly shown) [ADP-ribose] showed an IC50 against OscobB [1] (NAD+, analog of product O-acetyl-ADP-ribose) of 410 µM.
Take `Oc1ccc(/C=C/c2cc(O)cc(O)c2)cc1` [resveratrol]: at OscobB [2], the EC50 came out at 51 µM.
With `NC(=O)c1ccc[n+]([C@@H]2O[C@H](COP(=O)(O)OP(=O)(O)OC[C@H]3O[C@@H](n4cnc5c(N)ncnc54)[C@H](O)[C@@H]3O)[C@@H](O)[C@H]2O)c1` [NAD^+], binding on OscobB [3] was put at a Kd of 30 ± 2 µM.
On to `NC(=O)c1cccnc1` [NAM], for which, on OscobB [1], half-maximal inhibition (IC50) required 253 ± 45 µM.
